Results taken from US8546440B2, “Substituted bicyclic imidazole derivatives as gamma secretase modulators” (Janssen Pharmaceuticals, Inc., priority 2008, dated 2013).

What was measured:
Aβ42 [1] = assay: Screening for γ-secretase-modulating activity, Method 2: Aβ42 Alphalisa in supernatant of SKNBE2 cells carrying APP 695 wild type (Table 12c); format: cell-based; conditions: Method 2, Table 12c, incubated overnight
Outline: (§1)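 SKNBE2 cells expressing wild-type APP695, 10^4 cells/well, exposed to compound overnight at 37 °C; secreted Aβ42 and Aβtotal in supernatant measured by AlphaLISA sandwich immunoassays (Aβ42: C-terminal/N-terminal antibodies; Aβtotal: N-terminal/4G8). IC50 from 4-parameter fit of % untreated control.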

Aβtotal [2] = assay: Screening for γ-secretase-modulating activity, Method 2: Aβtotal Alphalisa in supernatant of SKNBE2 cells carrying APP 695 wild type (Table 12c); format: cell-based; conditions: Method 2, Table 12c, incubated overnight
Outline: as §1

Aβ42 [3] = assay: Demonstration of in vivo efficacy: Aβ42 lowering in brain after single oral dose (Table 13); conditions: mouse brain soluble fraction, ELISA, mean, compared to untreated animals
Source text: (§2) To determine whether acute administration of an Aβ42 lowering agent would reduce Aβ42 levels in vivo, non-transgenic rodents, e.g. mice or rats were used. Alternatively, two to three month old Tg2576 mice expressing APP695 containing the “Swedish” variant can be used or a transgenic mouse model developed by Dr. Fred Van Leuven (K. U. Leuven, Belgium) and co-workers, with neuron-specific expression of a clinical mutant of the human amyloid precursor protein [V717I] (Moechars et al., 1999 J. Biol. Chem. 274, 6483). Young transgenic mice have high levels of Aβ in the brain but no detectable Aβ deposition. At approximately 6-8 months of age, the transgenic mice start to display spontaneous, progressive accumulation of β-amyloid (Aβ) in the brain, eventually resulting in amyloid plaques within the subiculum, hippocampus and cortex. Animals treated with the Aβ42 lowering agent were examined and compared to those untreated or treated with vehicle and brain levels of soluble Aβ42 and total Aβ would be quantitated by standard techniques, for example, using ELISA. Treatment periods varied from hours to days and were adjusted based on the results of the Aβ42 lowering once a time course of onset of effect could be established.
(§3) A typical protocol for measuring Aβ42 lowering in vivo is shown but it is only one of many variations that could be used to optimize the levels of detectable Aβ. For example, Aβ42 lowering compounds were formulated in 20% of Captisol® (a sulfobutyl ether of β-cyclodextrin) in water or 20% hydroxypropyl β cyclodextrin. The Aβ42 lowering agents were administered as a single oral dose or by any acceptable route of administration to overnight fasted animals. After four hours, the animals were sacrificed and Aβ42 levels were analysed.
(§4) Blood was collected by decapitation and exsanguinations in EDTA-treated collection tubes. Blood was centrifuged at 1900 g for 10 minutes at 4° C. and the plasma recovered and flash frozen for later analysis. The brain was removed from the cranium and hindbrain. The cerebellum was removed and the left and right hemisphere were separated. The left hemisphere was stored at −18° C. for quantitative analysis of test compound levels. The right hemisphere was rinsed with phosphate-buffered saline (PBS) buffer and immediately frozen on dry ice and stored at −80° C. until homogenization for biochemical assays.
(§5) Mouse brains were resuspended in 10 volumes of 0.4% DEA (diethylamine)/50 mM NaCl pH 10 (for non-transgenic animals) or 0.1% 3-[3-cholamidopropyl)-dimethyl-ammonio]-1-propanesulfonate (CHAPS) in tris buffered saline (TBS) (for transgenic animals) containing protease inhibitors (Roche-11873580001 or 04693159001) per gram of tissue, e.g. for 0.158 g brain, add 1.58 ml of 0.4% DEA. All samples were sonicated for 30 seconds on ice at 20% power output (pulse mode). Homogenates were centrifuged at 221.300×g for 50 min. The resulting high speed supernatants were then transferred to fresh tubes and were optionally further purified before the next step. A portion of the supernatant was neutralized with 10% 0.5 M Tris-HCl and this was used to quantify Aβtotal.
The obtained supernatants were purified with Water Oasis HLB reverse phase columns (Waters Corp., Milford, Mass.) to remove non-specific immunoreactive material from the brain lysates prior subsequent Aβ detection. Using a vacuum manifold, all solutions were passed through the columns at a rate of approximately 1 ml per minute, so the vacuum pressure was adjusted accordingly throughout the procedure. Columns were preconditioned with 1 ml of 100% MeOH, before equilibration with 1 ml of H2O. Non-neutralized brain lysates were loaded onto the columns. The loaded samples were then washed twice with the first wash performed with 1 ml of 5% MeOH, and the second wash with 1 ml of 30% MeOH. Finally, the Aβ was eluted from the columns and into 100×30 mm glass tubes, with a solution of 90% MeOH with 2% NH4OH. […]

Aβtotal [4] = assay: Demonstration of in vivo efficacy: Aβtotal lowering in brain after single oral dose (Table 13); conditions: mouse brain soluble fraction, mean, compared to untreated animals
Source text: as §2, §3, §4
as §5, with “Aβtotal. […]” for “Aβtotal.”
In this model at least 20% Aβ42 lowering compared to untreated animals would be advantageous.

| SMILES | IC50 (Aβ42 [1]; Homo sapiens) [nM] | IC50 (Aβtotal [2]; Homo sapiens) [nM] | IC50 (Aβ42 [1]) [nM] | IC50 (Aβtotal [2]) [nM] | Aβ42 (% Ctrl)_Mean (Aβ42 [3]) [% Ctrl] | Aβtotal (% Ctrl)_Mean (Aβtotal [4]) [% Ctrl] |
| --- | --- | --- | --- | --- | --- | --- |
| COc1cc(Nc2cccn3cc(-c4ccc(F)cc4)nc23)ccc1-n1cnc(C)c1 [Compound 1] | 155 | 7410 | – | – | 65 | 103 |
| COc1cc(Nc2cccn3c(Cl)c(-c4ccc(F)cc4)nc23)ccc1-n1cnc(C)c1 [Compound 2] | – | – | – | – | 100 | 106 |
| COc1cc(Nc2cccn3cc(C4CCOCC4)nc23)ccc1-n1cnc(C)c1 [Compound 4] | 166 | > 10000 | – | – | 93 | 111 |
| COc1cc(Nc2cccn3c(C)c(-c4ccccc4)nc23)ccc1-n1cnc(C)c1 [Compound 5] | – | – | – | – | 66 | 96 |
| COc1cc(Nc2cccn3c(C)c(-c4ccccc4Cl)nc23)ccc1-n1cnc(C)c1 [Compound 15] | 38 | 5500 | – | – | 62 | 94 |
| COc1cc(Nc2cccn3c(C)c(-c4c(F)cccc4F)nc23)ccc1-n1cnc(C)c1 [Compound 27] | – | – | – | – | 59 | 94 |
| COc1cc(Nc2cccn3c(C)c(-c4ccccc4C(F)(F)F)nc23)ccc1-n1cnc(C)c1 [Compound 29] | 13 | 7080 | – | – | 56 | 86 |

More lines, main results first:

| IC50 (Aβ42 [1]; Homo sapiens) [nM] | IC50 (Aβtotal [2]; Homo sapiens) [nM] | IC50 (Aβ42 [1]) [nM] | IC50 (Aβtotal [2]) [nM] | SMILES | Aβ42 (% Ctrl)_Mean (Aβ42 [3]) [% Ctrl] | Aβtotal (% Ctrl)_Mean (Aβtotal [4]) [% Ctrl] |
| --- | --- | --- | --- | --- | --- | --- |
| 71 | 5750 | – | – | COc1cccc(-c2cn3cccc(Nc4ccc(-n5cnc(C)c5)c(OC)c4)c3n2)c1 [Compound 33] | 80 | 98 |
| 309 | > 10000 | – | – | COc1cc(Nc2cccn3cc(C)nc23)ccc1-n1cnc(C)c1 [Compound 50] | 67 | 96 |
| 407 | > 3020 | – | – | Cc1ncn(-c2ccc(Nc3cccn4cc(-c5ccccc5C)nc34)cc2)n1 [Compound 71] | 91 | 103 |
| – | – | 5 | 5890 | COc1nc(Nc2cccn3c(C)c(-c4ccccc4C(F)(F)F)nc23)ccc1-n1cnc(C)c1 [Compound 138] | 65 | 102 |
